Measured values published in PubChem BioAssay AID1963828 (Molecular Pharmacology Branch, DTP, NCI, 2024).

System: 991263-137-R1-J2-PDC complex spheroid viability
Assay: Anticancer human tumor 991263-137-R1-J2-PDC patient-derived colon adenocarcinoma cell line growth inhibition [POLQ]
Settings: for IC50: curve of first compound; for viability, T/C: stronger effect = lower value
Outline: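 Growth inhibition in 3D: complex spheroids (tumor PDC, HUVEC, MSC) treated with POLQ inhibitor combinations; where Cmax unknown, highest tested concentration 10 microM, except SN-38 at 1 microM.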

[1] = second compound 0.0316 µM, first compound 0.0316 µM
[2] = second compound 0.0316 µM, first compound 0.1 µM
[3] = second compound 0.0316 µM, first compound 0.316 µM
[4] = second compound 0.0316 µM, first compound 1 µM
[5] = second compound 0.0316 µM, first compound 3.16 µM
[6] = second compound 0.0316 µM, first compound 10 µM
[7] = second compound 0.1 µM, first compound 0.0316 µM
[8] = second compound 0.1 µM, first compound 0.1 µM
[9] = second compound 0.1 µM, first compound 0.316 µM
[10] = second compound 0.1 µM, first compound 1 µM
[11] = second compound 0.1 µM, first compound 3.16 µM
[12] = second compound 0.1 µM, first compound 10 µM
[13] = second compound 0.316 µM, first compound 0.0316 µM
[14] = second compound 0.316 µM, first compound 0.1 µM
[15] = second compound 0.316 µM, first compound 0.316 µM
[16] = second compound 0.316 µM, first compound 1 µM
[17] = second compound 0.316 µM, first compound 3.16 µM
[18] = second compound 0.316 µM, first compound 10 µM
[19] = second compound 1 µM, first compound 0.0316 µM
[20] = second compound 1 µM, first compound 0.1 µM
[21] = second compound 1 µM, first compound 0.316 µM
[22] = second compound 1 µM, first compound 1 µM
[23] = second compound 1 µM, first compound 3.16 µM
[24] = second compound 1 µM, first compound 10 µM
[25] = second compound 3.16 µM, first compound 0.0316 µM
[26] = second compound 3.16 µM, first compound 0.1 µM
[27] = second compound 3.16 µM, first compound 0.316 µM
[28] = second compound 3.16 µM, first compound 1 µM
[29] = second compound 3.16 µM, first compound 3.16 µM
[30] = second compound 3.16 µM, first compound 10 µM
[31] = second compound 10 µM, first compound 0.0316 µM
[32] = second compound 10 µM, first compound 0.1 µM
[33] = second compound 10 µM, first compound 0.316 µM
[34] = second compound 10 µM, first compound 1 µM
[35] = second compound 10 µM, first compound 3.16 µM
[36] = second compound 10 µM, first compound 10 µM
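Note: spheroids exposed to compounds for 7 days before readout.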
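Throughout, for viability, T/C: 100% = DMSO vehicle control viability.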

O=C(c1cc(Cc2n[nH]c(=O)c3ccccc23)ccc1F)N1CCN(C(=O)C2CC2)CC1 + COC1C(OC(N)=O)C(O)C(Oc2ccc3c(O)c(NC(=O)c4ccc(O)c(CC=C(C)C)c4)c(=O)oc3c2C)OC1(C)C
IC50 (second compound 0.0316 µM): > 10 µM
IC50 (second compound 0.1 µM): > 10 µM
IC50 (second compound 0.316 µM): > 10 µM
IC50 (second compound 1 µM): > 10 µM
IC50 (second compound 3.16 µM): > 10 µM
IC50 (second compound 10 µM): > 10 µM
viability, T/C [1]: 99.2%
viability, T/C [2]: 96.8%
viability, T/C [3]: 90.2%
viability, T/C [4]: 92.7%
viability, T/C [5]: 96.9%
viability, T/C [6]: 95.5%
viability, T/C [7]: 99.2%
viability, T/C [8]: 101%
viability, T/C [9]: 100%
viability, T/C [10]: 82.1%
viability, T/C [11]: 85.5%
viability, T/C [12]: 85.6%
viability, T/C [13]: 113%
viability, T/C [14]: 109%
viability, T/C [15]: 81.6%
viability, T/C [16]: 92.5%
viability, T/C [17]: 113%
viability, T/C [18]: 108%
viability, T/C [19]: 93.9%
viability, T/C [20]: 98.1%
viability, T/C [21]: 78.2%
viability, T/C [22]: 93.7%
viability, T/C [23]: 73.5%
viability, T/C [24]: 101%
viability, T/C [25]: 94.5%
viability, T/C [26]: 103%
viability, T/C [27]: 104%
viability, T/C [28]: 85%
viability, T/C [29]: 109%
viability, T/C [30]: 113%
viability, T/C [31]: 82.4%
viability, T/C [32]: 94.7%
viability, T/C [33]: 106%
viability, T/C [34]: 78.4%
viability, T/C [35]: 112%
viability, T/C [36]: 103%

CCc1cc2c(N3CCc4c(cc(Cn5ccnc5)cc4-c4cn(C)nc4C(F)(F)F)C3=O)cc(C)nc2c(OC)n1 + Nc1ccc(C#CCN(C(=O)Cc2ncc(C(F)(F)F)cc2C(F)(F)F)c2ccc(F)cc2)nn1
IC50 (second compound 0.0316 µM): > 10 µM
IC50 (second compound 0.1 µM): > 10 µM
IC50 (second compound 0.316 µM): > 10 µM
IC50 (second compound 1 µM): > 10 µM
IC50 (second compound 3.16 µM): > 10 µM
IC50 (second compound 10 µM): > 10 µM
viability, T/C [1]: 99.3%
viability, T/C [2]: 104%
viability, T/C [3]: 107%
viability, T/C [4]: 98.7%
viability, T/C [5]: 89.8%
viability, T/C [6]: 92.2%
viability, T/C [7]: 105%
viability, T/C [8]: 99.9%
viability, T/C [9]: 102%
viability, T/C [10]: 98.2%
viability, T/C [11]: 109%
viability, T/C [12]: 96.9%
viability, T/C [13]: 102%
viability, T/C [14]: 112%
viability, T/C [15]: 103%
viability, T/C [16]: 103%
viability, T/C [17]: 87.7%
viability, T/C [18]: 104%
viability, T/C [19]: 107%
viability, T/C [20]: 107%
viability, T/C [21]: 93.2%
viability, T/C [22]: 90.5%
viability, T/C [23]: 104%
viability, T/C [24]: 93%
viability, T/C [25]: 94.6%
viability, T/C [26]: 99.9%
viability, T/C [27]: 98.6%
viability, T/C [28]: 96.6%
viability, T/C [29]: 95.6%
viability, T/C [30]: 83.9%
viability, T/C [31]: 94.6%
viability, T/C [32]: 103%
viability, T/C [33]: 98.2%
viability, T/C [34]: 92.7%
viability, T/C [35]: 94.9%
viability, T/C [36]: 93.2%

CNCc1ccc(-c2[nH]c3cc(F)cc4c3c2CCNC4=O)cc1 + Nc1ccc(C#CCN(C(=O)Cc2ncc(C(F)(F)F)cc2C(F)(F)F)c2ccc(F)cc2)nn1
IC50 (second compound 0.0316 µM): > 10 µM
IC50 (second compound 0.1 µM): > 10 µM
IC50 (second compound 0.316 µM): > 10 µM
IC50 (second compound 1 µM): > 10 µM
IC50 (second compound 3.16 µM): > 10 µM
IC50 (second compound 10 µM): > 10 µM
viability, T/C [1]: 98.4%
viability, T/C [2]: 91.8%
viability, T/C [3]: 98.2%
viability, T/C [4]: 93.4%
viability, T/C [5]: 97.7%
viability, T/C [6]: 117%
viability, T/C [7]: 112%
viability, T/C [8]: 99.5%
viability, T/C [9]: 114%
viability, T/C [10]: 95.1%
viability, T/C [11]: 110%
viability, T/C [12]: 108%
viability, T/C [13]: 104%
viability, T/C [14]: 97.2%
viability, T/C [15]: 96.3%
viability, T/C [16]: 101%
viability, T/C [17]: 93.2%
viability, T/C [18]: 119%
viability, T/C [19]: 99.2%
viability, T/C [20]: 90.1%
viability, T/C [21]: 93%
viability, T/C [22]: 97%
viability, T/C [23]: 106%
viability, T/C [24]: 106%
viability, T/C [25]: 94.5%
viability, T/C [26]: 98%
viability, T/C [27]: 103%
viability, T/C [28]: 99.7%
viability, T/C [29]: 97.1%
viability, T/C [30]: 100%
viability, T/C [31]: 88.1%
viability, T/C [32]: 97.5%
viability, T/C [33]: 99.3%
viability, T/C [34]: 94.5%
viability, T/C [35]: 103%
viability, T/C [36]: 109%
